# Test results taken from patent publication US9173875B2, “Treatment for nicotine-induced lung disease using peroxisome proliferator-activated receptor gamma agonists” (Los Angeles Biomedical Research Institute at Harbor-UCLA …, priority 2006, dated 2015).
# Like-named read-outs stand apart in the source and are kept apart here.
# Legend:
# [1] = test system: fetal alveolar type II (ATII) cells; assay: In vivo ATII cell proliferation assay (PCNA and SP-C double labeling) after in utero nicotine; set-up: species or system Sprague-Dawley rat
# fetal ATII cells = assay: Ex vivo ATII cell proliferation assay (tetrazolium dye) after in utero nicotine; set-up: species or system Sprague-Dawley rat
# Description: Pathogen-free timed (embryonic day 0=day of mating) pregnant Sprague-Dawley rats (200-250 g body wt) were obtained from Charles River (Hollister, Calif.) at embryonic day 3 and allowed to acclimatize until embryonic day 6. […] The fetuses were extracted by cesarean section, and the lungs were snap frozen for later analysis or processed for ATII cell or fibroblast culture. […] Louis, Mo.; 0.25 mg/kg). All studies were approved by the Los Angeles Biomedical Research Institute Institutional Review Board and were conducted in accordance with the National Institutes of Health Guide for the Care and Use of Laboratory Animals. ATII cells were isolated using differential adherence in monolayer culture, as described previously (Battenburg et al. (1990) Biochim. Biophys. Acta 960: 441-456). Briefly, three to five […] used per preparation. The fetuses were delivered via cesarean section, and fetal lungs were placed in Hanks' balanced salt solution without calcium and magnesium. […] A Teflon stirring bar was used to further dissociate the lungs by mechanical disruption of the tissue during incubation in a 37° C. water bath. After the tissue was dispersed into a unicellular suspension, the cells were pelleted at 500 g for 10 min at room temperature in a 50-ml polystyrene centrifuge tube. […] The cell suspension was then added to 75-cm^2 (T-75) culture flasks for 30-60 min to allow for differential adherence of lung fibroblasts. The unattached cells were then transferred to another T-75 culture flask for an additional 60 min. After this second culture period, the medium and nonadherent cells were removed from the flask and diluted with 1 vol of culture medium. This diluted suspension was cultured overnight in a T-75 culture flask at 37° C. in a CO2 incubator to allow the ATII cells to adhere. […] According to the manufacturer's protocol, cell proliferation was determined by the tetrazolium dye assay, which is based on the conversion of a tetrazolium salt to a red formazan product by living cells (Cell Proliferation Assay, Promega).
# fetal rat lung explants = assay: In vitro ATII cell proliferation in lung explants (PCNA and SP-C labeling); assay type: cell-based
# Description: Explants derived from three to five litters of rats were used for each experiment during the course of the studies. Lungs were harvested from fetal rats under sterile conditions. The lung tissue was chopped into −1-mm cubes and incubated in 0.5 ml of Waymouth's MB-252/1 medium containing penicillin (100 U/ml)-streptomycin (100 U/ml) and Fungizone (2.5 μg/ml) in six-well plates while rocking on an oscillating platform (3 cycles/min) in 5% CO2-95% air at 37° C. The explants were allowed to attach for 1-2 h.
# Cultured ATII cells or explants were treated with nicotine under various experimental conditions (see below), and cell proliferation was determined by Cell Proliferation Assay (Promega) or dual PCNA and SP-C labeling, respectively (see above).
# ATII cells [2] = assay: Phospholipid synthesis ([3H]choline incorporation into saturated phosphatidylcholine) by ATII cells after in utero nicotine; assay type: in vivo, Sprague-Dawley rat
# Description: (§1) Incorporation of [methyl-3H]choline chloride (NEN Dupont) into saturated phosphatidylcholine was determined in monolayers of cultured explants and ATII cells. […] After incubation, explants and cells were washed three times with ice-cold PBS. The explants and the scraped cells were thoroughly homogenized, and the cellular lipids were extracted with chloroform-methanol (2:1) (Bligh and Dyer (1959) Can. J. Biochem. Physiol., 37: 911-917). The organic phase was dried under a stream of nitrogen at 60° C., resuspended in 0.5 ml of carbon tetrachloride containing 3.5 mg of osmium tetroxide, and left at room temperature for 15 min. The reaction mixture was redried under nitrogen and resuspended in 70 μl of chloroform-methanol (9:1, vol/vol). The lipid extracts were transferred to silica gel plates (Kodak, Rochester, N.Y.) and developed in a chloroform-methanolwater (65:25:4) solvent system. Pure dipalmitoyl phosphatidylcholine was used as the chromatographic standard. The developed plates were stained with bromothymol blue, blotted, and vacuum dried for 5 min at 90° C. Chromatogram spots corresponding to the migration of saturated phosphatidylcholine were scraped from the plates and counted by liquid scintillation spectrometry. The amounts of [methyl^3H]choline chloride incorporated into saturated phosphatidylcholine were expressed as disintegrations per minute per milligram of protein.
# ATII cells [3] = assay: Phospholipid synthesis ([3H]choline incorporation) by ATII cells treated in vitro; assay type: cell-based, rat
# Description: Isolated ATII cells were cultured in DMEM+10% FBS in 6- and 96-well plates, 100-mm dishes, and T-75 flasks, as needed, and maintained at 37° C. in a humidified incubator containing 5% CO2-95% air. At 80-90% confluence, cells were processed for cell proliferation, differentiation, and metabolic studies (see below).
# as §1
# ATII cells [4] = assay: Western analysis of CCT-α and SP-B in ATII cells after in utero nicotine; assay type: in vivo, Sprague-Dawley rat
# Description: Pathogen-free timed (embryonic day 0=day of mating) pregnant Sprague-Dawley rats (200-250 g body wt) were obtained from Charles River (Hollister, Calif.) at embryonic day 3 and allowed to acclimatize until embryonic day 6. […] The fetuses were extracted by cesarean section, and the lungs were snap frozen for later analysis or processed for ATII cell or fibroblast culture. […] Louis, Mo.; 0.25 mg/kg). All studies were approved by the Los Angeles Biomedical Research Institute Institutional Review Board and were conducted in accordance with the National Institutes of Health Guide for the Care and Use of Laboratory Animals. Protein extraction and Western blot analysis for SP-B and choline phosphate cytidylyltransferase-α (CCT-α) were performed using standard methods. […] Chemicon) overnight at 4° C. The antibody for CCT-α (1:2,000 dilution) was a kind gift from Dr. […] (University of Iowa, Iowa City, Iowa). […] The density of the SP-B and CCT-α bands was quantified using a scanning densitometer (Eagle Eye, Stratagene).
# ATII cells [5] = assay: Western analysis of CCT-α and SP-B in ATII cells treated in vitro; assay type: cell-based, rat
# Description: Protein extraction and Western blot analysis for SP-B and choline phosphate cytidylyltransferase-α (CCT-α) were performed using standard methods. […] Equal amounts of the protein from the supernatant were dissolved in electrophoresis sample buffer and subjected to SDS-polyacrylamide (4-12% gradient) gel electrophoresis followed by electrophoretic transfer to a nitrocellulose membrane. The membrane was blocked with 5% milk in 1× Tris-buffered saline containing 0.1% Tween 20 for 1 h and then incubated with rabbit anti-human SP-B polyclonal antibody (1:1,000 dilution; Chemicon) overnight at 4° C. The antibody for CCT-α (1:2,000 dilution) was a kind gift from Dr. Mallampalli (University of Iowa, Iowa City, Iowa). Subsequently, the membrane was washed with 1× Tris-buffered saline+0.1% Tween 20 and incubated with a 1:3,000 dilution of anti-rabbit horseradish peroxidase-linked whole antibody immunoglobulin G (Amersham, Arlington Heights, Ill.) for 1 h at room temperature, washed again, and developed with a chemiluminescent substrate (ECL, Amersham) following the manufacturer's protocol. The density of the SP-B and CCT-α bands was quantified using a scanning densitometer (Eagle Eye, Stratagene).
# WI38 cells [6] = assay: Reversal of nicotine-induced LIF-to-MYF transdifferentiation in WI38 cells, Western analysis; settings: GW9662 1×10^−5 M pretreatment; nicotine 1×10^−9 M 7 days
# Description: The human embryonic cell line WI38 was obtained from the American Type Culture Collection (Rockville, Md.). Cells were grown in minimum essential medium (MEM) +10% fetal bovine serum at 37° C. in six-well plates, two well slides, and 60-mm and 100-mm culture dishes, as needed. […] Subsequently, the cells were treated with rosiglitazone (RGZ) (1×10^−5 M) (a PPARγ agonist), PTHrP (5×10^−7 M), or DBcAMP (1×10^−5 M) for 7 days, and the expression of PTHrP receptor, PPARγ, ADRP, calponin, and cSMA was determined by Western analysis and immunohistochemistry. Simultaneously, fibroblast function was characterized by measuring their capacity to take up triglycerides. Some experiments were performed in the presence of a specific PPARγ antagonist, GW9662. Medium containing fresh chemicals was added daily, and at the end of the experimental period the cells were processed as needed.
# For Western blotting, cells were lysed using an extraction buffer [10 mM tris (hydroxymethyl) aminomethane (Tris, pH 7.5), 0.25 M sucrose, 1 mM EDTA, 5 mM benzamidine, 2 mM phenylmethylsulfonyl fluoride, and 10 (j.tg/ml each of pepstatin A, aprotinin, and leupeptin], and centrifuged at 140 g for 10 min (4° C.). Equal amounts of the protein (25 μg) from the supernatant were dissolved in electrophoresis sample buffer and were subjected to sodium dodecyl sulfate-polyacrylamide (4%-12% gradient) gel electrophoresis (SDS-PAGE) followed by electrophoretic transfer to a nitrocellulose memane. The nonspecific binding of antibody was blocked by washing with Tris-buffered saline (TBS) containing 0.1% Tween 20 (TBST) and 5% milk for 1 h. The blot was then subjected to two brief washes with TBST plus 0.5% Tween 20, incubated in TBST plus 0.1% Tween 20 and the specific primary antibodies (PPARγ 1:2000, Alexis Biochemicals, San Diego, Calif.; cSMA 1:50,000, Sigma, St. Louis, Mo.: ADRP 1:3000) overnight at 4° C. Blots were then washed in TBST plus 0.1% Tween 20 and then incubated for 1 h in secondary antibody, washed, and developed with a chemiluminescent substrate [enhanced chemiluminescence (ECL); Amersham, Arlington Heights, Ill.] following the manufacturer's protocol. The densities of the specific protein bands were quantified using a scanning densitometer (Eagle Eye II still video system, Stratagene, La Jolla, Calif.).
# PTHrP receptor = target: T1, PTHrP receptor (Homo sapiens, UniProt Q03431); assay: PTHrP receptor binding assay
# T1 construct: 10-12 μg membrane protein; endogenous in cells; host or cells: WI38 human embryonic lung fibroblasts (inferred; the assay text only says membrane protein)
# T1 sequence (Q03431 27-593): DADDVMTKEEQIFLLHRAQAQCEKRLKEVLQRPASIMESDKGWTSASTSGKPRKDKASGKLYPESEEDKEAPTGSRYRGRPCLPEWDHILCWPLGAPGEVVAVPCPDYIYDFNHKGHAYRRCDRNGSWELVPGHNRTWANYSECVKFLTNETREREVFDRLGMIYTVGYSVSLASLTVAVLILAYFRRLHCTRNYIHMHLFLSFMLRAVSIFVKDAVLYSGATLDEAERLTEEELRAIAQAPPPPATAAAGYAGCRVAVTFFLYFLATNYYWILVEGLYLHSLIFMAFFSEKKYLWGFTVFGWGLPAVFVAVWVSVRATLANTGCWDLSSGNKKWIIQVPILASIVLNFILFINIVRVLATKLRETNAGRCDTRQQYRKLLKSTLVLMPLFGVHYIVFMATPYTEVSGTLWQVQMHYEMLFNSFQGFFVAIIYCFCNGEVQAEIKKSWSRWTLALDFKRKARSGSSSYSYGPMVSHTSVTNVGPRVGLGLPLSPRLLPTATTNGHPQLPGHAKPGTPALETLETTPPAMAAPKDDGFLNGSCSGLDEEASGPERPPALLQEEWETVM
# Description: The receptor binding assay was carried out as previously described (Torday and Rehan (2002) Am. J. Physiol. Lung Cell Mol. Physiol. 283: L130-L135; Torday and Rehan (2003) Cell Biochem Biophys 37: 235-246). The assay mixture, in a total volume of 0.1 ml, contained 50 mM Tris.HCl (pH 7.4), 2 mM dithiothreitol, 10 mM EDTA, 10 μg/ml each of protease inhibitors (leupeptin, pepstatin, antipain, and aprotinin), 0.5 mM phenylmethylsulfonyl fluoride, 10 mg/ml BSA, 5 mM MgCl2, […] [1251]-Tyr34-PTHrP-(1-34) (specific activity 1,064 Ci/mmol), 10-12 μg membrane protein, and 1×10-10 to 1×10^−6 M PTHrP-(1-34). Triplicate samples were incubated for 30 min at 30° C. Reactions were stopped by the addition of 0.1 ml of homogenization buffer containing 20 mg/ml of BSA and placed in ice-cold water for 30 min, followed by centrifugation at 15,000 g for 1 min. The supernatant was aspirated, and the pellet was counted for radioactive content with a gamma counter (model 1470; Wallace, Gaithersburg, Md.). Nonspecific binding was determined in the presence of 1 μM nonradioactive PTHrP-(1-34). Specific binding of [^125I]-Tyr34-PTHrP-(1-34) was calculated as total binding minus nonspecific binding and expressed as femtomoles per milligrams of protein. […] The effect of nicotine (1×10^−6 M) on PTHrP receptor binding was examined without and with the nACh receptor antagonists D-tubocurarine, α-bungarotoxin, or mecamylamine (1×10^−9 to 1×10^−6 M).
# ATII cells [7] = settings: rat, in vivo
# WI38 cells [8] = assay: Triglyceride uptake assay ([3H]triolein) in WI38 cells; assay type: cell-based, human
# Description: The human embryonic cell line WI38 was obtained from American Type Culture Collection (Rockville, Md.). Cells were grown in MEM plus 10% FBS at 37° C. in six-well plates, four-well slides, and 60- and 100-mm culture dishes as needed.
# The method used to quantitate triglyceride uptake by fetal rat lung fibroblasts has been described previously (Torday et al. (1995) Biochim Biophys Acta 1254: 198-206). Briefly, culture medium was replaced with DMEM containing 20% adult rat serum mixed with [3H]triolein (5 μCi/ml). The cells were incubated at 37° C. in 5% CO2+balance air for 4 h. At the termination of the incubation, the medium was decanted, the cells were rinsed twice with 1 ml of ice-cold MEM, and the cells were removed from the culture plate after a 5- to 10-min incubation with 2 ml of a 0.05% trypsin solution. An aliquot of the cell suspension was taken for protein assay (Bradford (1976) Anal Biochem 72: 248-254), and the remaining cell suspension was extracted for neutral lipid content.
molecule,measurement,setting,value
O=C(Nc1ccccc1)c1cc([N+](=O)[O-])ccc1Cl [GW9662],block of the PGJ2 effect on nicotine-induced increase in ATII cell proliferation,"[1]; GW-9662 0.25 mg/kg pretreatment, nicotine + PGJ2",almost completely blocked
same,block of the PGJ2 effect on nicotine-induced increase in ATII cell proliferation,[1]; in utero nicotine + PGJ2,70%
same,block of the PGJ2 effect,fetal ATII cells; nicotine + PGJ2,blocked
same,block of the PGJ2 effect in lung explants,fetal rat lung explants; nicotine 24 h + PGJ2,blocked
same,effect on nicotine-induced increase in phospholipid synthesis,"ATII cells [2]; concomitant PGJ2 alone or in combination with GW-9662, in utero",no effect
same,effect on nicotine-induced increase in phospholipid synthesis,"ATII cells [3]; concomitant PGJ2 alone or in combination with GW-9662, in vitro",no effect
same,effect on nicotine-induced increase (CCT-α experiment),"ATII cells [4]; PGJ2 alone or in combination with GW-9662, in vivo",no effect
same,effect on nicotine-induced increase in SP-B protein expression,"ATII cells [4]; concomitant treatment, in utero",no effect
same,effect on nicotine-induced increase (CCT-α experiment),"ATII cells [5]; PGJ2 alone or in combination with GW-9662, in vitro",no effect
same,effect on nicotine-induced increase in SP-B expression,ATII cells [5]; in vitro,unaffected
same,"block of molecular protection by PTHrP, DBcAMP and RGZ against nicotine-induced LIF-to-MYF transdifferentiation (PPARγ, calponin)",WI38 cells [6],completely blocked
PTHrP-(7-34) amide,binding of radioactive ligand [125I]-Tyr34-PTHrP-(1-34),PTHrP receptor; 1 μM,inhibited
"CCCCC[C@H](O)/C=C/[C@H]1C(=O)C=C[C@@H]1C/C=C\CCCC(=O)O [PGJ2, prostaglandin J2]",block of nicotine-induced increase in ATII cell proliferation,"[1]; rat, in vivo",completely blocked
same,block of nicotine-induced increase in ATII proliferation,"fetal ATII cells; rat, in vivo",almost completely blocked
same,block of nicotine-induced increase in ATII cell proliferation in lung explants,fetal rat lung explants,blocked
same,effect on nicotine-induced increase in phospholipid synthesis,"ATII cells [2]; rat, in vivo",no effect
same,effect on nicotine-induced increase in phospholipid synthesis,ATII cells [3],no effect
same,effect on nicotine-induced increase (CCT-α experiment),"ATII cells [4]; rat, in vivo",no effect
same,effect on nicotine-induced increase in SP-B protein expression,"ATII cells [4]; rat, in vivo",no effect
same,effect on nicotine-induced increase (CCT-α experiment),ATII cells [5],no effect
same,effect on nicotine-induced increase in SP-B expression,ATII cells [5],unaffected
same,block of nicotine-induced alterations in ribose synthesis,ATII cells [7],completely blocked
same,prevention of nicotine-induced changes in de novo palmitate synthesis and acetyl-CoA labeling,ATII cells [7],completely prevented
COc1cc2c3cc1Oc1cc(ccc1O)C[C@@H]1c4c(cc(OC)c(O)c4Oc4ccc(cc4)C[C@@H]3N(C)CC2)CC[N+]1(C)C [D-tubocurarine],prevention of nicotine-induced decrease in triolein uptake,WI38 cells [8],completely prevented
same,prevention of nicotine-induced decrease in PTHrP binding to its receptor,PTHrP receptor,prevented
CNC1(C)C2CCC(C2)C1(C)C (centres unmarked) [mecamylamine],prevention of nicotine-induced decrease in triolein uptake,WI38 cells [8]; nACh receptor antagonist 1×10^−9 or 1×10^−6 M,not
same,prevention of nicotine-induced decrease in PTHrP binding to its receptor,"PTHrP receptor; pretreatment with nACh receptor antagonist, nicotine 1×10^−6 M",not
α-bungarotoxin,prevention of nicotine-induced decrease in triolein uptake,WI38 cells [8],completely prevented
same,prevention of nicotine-induced decrease in PTHrP binding to its receptor,PTHrP receptor,prevented
